Source: the supplement of paper PMC11208160

Test: recombinant barcode read abundance after kanamycin selection (control-corrected) (log10(CPM+1)); higher = more efficient recombination; sequences stand for … in AGTGCAGAGAAAATCGGCCAGTTTTCTCTGCCTGCAGTCCGCATGCCGT…AGATTTATGCAGCGGACTGCCTTTCTCCCAAAGTGATAAACCGGACAGTATCATGGACCGGTTTTCCCGGTAATCCGTATTTGCAAGGTTGGTTTCACT; site = the 11-nt target
Procedure, shortened: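 A vector carrying a T7-inducible recombinase and the last 73 bp of the bridge RNA received, by Gibson cloning, oligos encoding a promoter, target, barcode and the first 104 bridge RNA bases under J23119. The pooled constructs entered E. coli together with a donor plasmid by electroporation. Selection used chloramphenicol/ampicillin/kanamycin with 0.1 mM IPTG, with chloramphenicol/ampicillin LB agar as the control, each in two replicates. Recombination efficiency is the averaged, control-corrected counts-per-million of barcodes at recombinant junctions, reported as log10(CPM+1).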
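Further: IS621 recombinase and bridge RNA in Escherichia coli cells.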

Row | Sequence | recombinant barcode read abundance (log10)
1 | ATGGGCCCTTGGGTTCTAACCTGTTGCTA (site ATGGGCCCTGA) | 0.288
2 | ATGGGCCCTTGGGTTCTAACCTGTTGCTA (site ATGGGCCCTTA) | 2.17
3 | ATGGGCCCTTGGGTTCTAACCTGTTGCTT (site ATGGGCCCTAA) | 2.01
4 | ATGGGCCCTTGGGTTCTAACCTGTTGCTT (site ATGGGCCCTCA) | 0.00714
5 | ATGGGCCCTTGGGTTCTAACCTGTTGCTT (site ATGGGCCCTGA) | 0.0928
6 | ATGGGCCCTTGGGTTCTAACCTGTTGCTT (site ATGGGCCCTTA) | 0.243
7 | ATGGTACCTTGGGTTCTAACCTGTTGCTA (site ATGGTACCTTA) | 2.34
8 | ATGGTACCTTGGGTTCTAACCTGTTGCTA (site GATAACGCTAG) | 0.247
9 | ATGGTGACTTGGGTTCTAACCTGTTGCCT (site ATGGTGACTAG) | 1.21
10 | ATGGTGACTTGGGTTCTAACCTGTTGCCT (site ATGGTGCCTAG) | 0.296
11 | ATGGTGACTTGGGTTCTAACCTGTTGCCT (site ATGGTGGCTAG) | 0.0522
12 | ATGGTGACTTGGGTTCTAACCTGTTGCCT (site ATGGTGTCTAG) | 0.0769
13 | ATGTCCTCTTGGGTTCTAACCTGTTGCCA (site ATGTCCTCTTG) | 1.02
14 | ATGTCCTCTTGGGTTCTAACCTGTTGCCA (site GCTCGGGCTCC) | 0
15 | ATGTCTACTTGGGTTCTAACCTGTTGCAG (site ATGTCTACTCT) | 0.673
16 | ATGTCTACTTGGGTTCTAACCTGTTGCAG (site TGCCTATCTAA) | 0.219
17 | ATGTGCACTTGGGTTCTAACCTGTTGCAG (site ATGTGCACTCT) | 2.15
18 | ATGTGCACTTGGGTTCTAACCTGTTGCAG (site CTGTGCACTCG) | 0.63
19 | ATTAAATCTTGGGTTCTAACCTGTTGCCT (site ATTAAATCTAG) | 0.0334
20 | ATTAAATCTTGGGTTCTAACCTGTTGCCT (site ATTAATCCTAG) | 0.485
21 | ATTAACCCTTGGGTTCTAACCTGTTGCCT (site AATAACCCTAG) | 0.0681
22 | ATTAACCCTTGGGTTCTAACCTGTTGCCT (site ACTAACCCTAG) | 0.0136

Row | Sequence | recombinant barcode read abundance (log10)
23 | ATTAACCCTTGGGTTCTAACCTGTTGCCT (site AGTAACCCTAG) | 0.085
24 | ATTAACCCTTGGGTTCTAACCTGTTGCCT (site ATTAACCCTAG) | 1.21
25 | ATTAACTCTTGGGTTCTAACCTGTTGCCT (site ATTAACTCTAG) | 0.944
26 | ATTAACTCTTGGGTTCTAACCTGTTGCCT (site CGAGTGACTCT) | 0.0163
27 | ATTAAGACTTGGGTTCTAACCTGTTGCCT (site ATAAAGACTAG) | 0.423
28 | ATTAAGACTTGGGTTCTAACCTGTTGCCT (site ATCAAGACTAG) | 0.484
29 | ATTAAGACTTGGGTTCTAACCTGTTGCCT (site ATGAAGACTAG) | 0.11
30 | ATTAAGACTTGGGTTCTAACCTGTTGCCT (site ATTAAGACTAG) | 1.35
31 | ATTCGAGCTTGGGTTCTAACCTGTTGCGC (site ATTCGAGCTGC) | 2.03
32 | ATTCGAGCTTGGGTTCTAACCTGTTGCGC (site ATTCGGGCTAC) | 0.0665
33 | ATTCGAGCTTGGGTTCTAACCTGTTGCGG (site ATTCGAGCTCC) | 1.97
34 | ATTCGAGCTTGGGTTCTAACCTGTTGCGG (site GTTCGAGCTCC) | 0.0863
35 | ATTGAGACTTGGGTTCTAACCTGTTGCTT (site ATTGAGACTAA) | 1.33
36 | ATTGAGACTTGGGTTCTAACCTGTTGCTT (site GAGAGTCCTTG) | 0.0837
37 | ATTGGGGCTTGGGTTCTAACCTGTTGCAG (site ATTAGGGCTCG) | 0.266
38 | ATTGGGGCTTGGGTTCTAACCTGTTGCAG (site ATTGGGGCTCT) | 2.38
39 | ATTTAAGCTTGGGTTCTAACCTGTTGCCT (site ATTTAAGCTAG) | 0.498
40 | ATTTAAGCTTGGGTTCTAACCTGTTGCCT (site GAGCGGCCTCT) | 0.0137
41 | ATTTCTTCTTGGGTTCTAACCTGTTGCCT (site ATATCTTCTAG) | 0.113
42 | ATTTCTTCTTGGGTTCTAACCTGTTGCCT (site ATTTCTTCTAG) | 0.0847
43 | ATTTGCACTTGGGTTCTAACCTGTTGCCT (site ATTTGAACTAG) | 0.14
44 | ATTTGCACTTGGGTTCTAACCTGTTGCCT (site ATTTGCACTAG) | 0.184

Row | Sequence | recombinant barcode read abundance (log10)
45 | ATTTGCACTTGGGTTCTAACCTGTTGCCT (site ATTTGGACTAG) | 0.0348
46 | ATTTGCACTTGGGTTCTAACCTGTTGCCT (site ATTTGTACTAG) | 0.0454
47 | ATTTGTACTTGGGTTCTAACCTGTTGCCT (site ATTTGAACTAG) | 0.0288
48 | ATTTGTACTTGGGTTCTAACCTGTTGCCT (site ATTTGCACTAG) | 0.0709
49 | ATTTGTACTTGGGTTCTAACCTGTTGCCT (site ATTTGGACTAG) | 0
50 | ATTTGTACTTGGGTTCTAACCTGTTGCCT (site ATTTGTACTAG) | 0.293
51 | CAAACACCTTGGGTTCTAACCTGTTGCCT (site CAAACAACTAG) | 0.0738
52 | CAAACACCTTGGGTTCTAACCTGTTGCCT (site CAAACACCTAG) | 1.46
53 | CAAACACCTTGGGTTCTAACCTGTTGCCT (site CAAACAGCTAG) | 0.682
54 | CAAACACCTTGGGTTCTAACCTGTTGCCT (site CAAACATCTAG) | 0.287
55 | CAAACTACTTGGGTTCTAACCTGTTGCAC (site CAAACTACTGT) | 0.556
56 | CAAACTACTTGGGTTCTAACCTGTTGCAC (site CAAACTACTTA) | 0.0177
57 | CAAAGGGCTTGGGTTCTAACCTGTTGCAG (site CAAAAGGCTCT) | 1.17
58 | CAAAGGGCTTGGGTTCTAACCTGTTGCAG (site CAAAGGGCTCT) | 2.29
59 | CAAAGTCCTTGGGTTCTAACCTGTTGCCT (site CAAAGTCCTAA) | 0.013
60 | CAAAGTCCTTGGGTTCTAACCTGTTGCCT (site CAAAGTCCTAC) | 0.0449
61 | CAAAGTCCTTGGGTTCTAACCTGTTGCCT (site CAAAGTCCTAG) | 1.12
62 | CAAAGTCCTTGGGTTCTAACCTGTTGCCT (site CAAAGTCCTAT) | 0.0828
63 | CAAAGTCCTTGGGTTCTAACCTGTTGCTT (site CAAAGTCCTAA) | 0.437
64 | CAAAGTCCTTGGGTTCTAACCTGTTGCTT (site CAAAGTCCTAC) | 0.174
65 | CAAAGTCCTTGGGTTCTAACCTGTTGCTT (site CAAAGTCCTAG) | 0.152
66 | CAAAGTCCTTGGGTTCTAACCTGTTGCTT (site CAAAGTCCTAT) | 0.429

Row | Sequence | recombinant barcode read abundance (log10)
67 | CAACCGGCTTGGGTTCTAACCTGTTGCCT (site CAACCGACTAG) | 0.0354
68 | CAACCGGCTTGGGTTCTAACCTGTTGCCT (site CAACCGCCTAG) | 0.255
69 | CAACCGGCTTGGGTTCTAACCTGTTGCCT (site CAACCGGCTAG) | 0.986
70 | CAACCGGCTTGGGTTCTAACCTGTTGCCT (site CAACCGTCTAG) | 0.111
71 | CAAGGGCCTTGGGTTCTAACCTGTTGCCT (site CAAAGGCCTAG) | 0.423
72 | CAAGGGCCTTGGGTTCTAACCTGTTGCCT (site CAACGGCCTAG) | 0.0504
73 | CAAGGGCCTTGGGTTCTAACCTGTTGCCT (site CAAGGGCCTAG) | 0.701
74 | CAAGGGCCTTGGGTTCTAACCTGTTGCCT (site CAATGGCCTAG) | 0.375
75 | CAAGTAGCTTGGGTTCTAACCTGTTGCCT (site CAAGTAGCTAG) | 0.591
76 | CAAGTAGCTTGGGTTCTAACCTGTTGCCT (site CAAGTCGCTAG) | 0.123
77 | CAAGTAGCTTGGGTTCTAACCTGTTGCCT (site CAAGTGGCTAG) | 0.183
78 | CAAGTAGCTTGGGTTCTAACCTGTTGCCT (site CAAGTTGCTAG) | 0.0368
79 | CAATAGACTTGGGTTCTAACCTGTTGCCT (site CAATAGACTAG) | 1.19
80 | CAATAGACTTGGGTTCTAACCTGTTGCCT (site TGCACCTCTTA) | 0.0564
81 | CAATCACCTTGGGTTCTAACCTGTTGCTT (site CAAACACCTAA) | 0.109
82 | CAATCACCTTGGGTTCTAACCTGTTGCTT (site CAACCACCTAA) | 0.461
83 | CAATCACCTTGGGTTCTAACCTGTTGCTT (site CAAGCACCTAA) | 0.027
84 | CAATCACCTTGGGTTCTAACCTGTTGCTT (site CAATCACCTAA) | 0.794
85 | CAATCCTCTTGGGTTCTAACCTGTTGCTT (site CAATCCTCTAA) | 0.664
86 | CAATCCTCTTGGGTTCTAACCTGTTGCTT (site CCATCCTCTAA) | 0
